# Assay results published in patent publication EP4678638A1, “NEW E3 UBIQUITIN LIGASE LIGAND, PROTEIN DEGRADATION AGENT AND USE THEREOF” (priority 2023, dated 2024).
# Like-named read-outs stand apart in the source and are kept apart here.
# Assays:
# SR = experiment: CCK-8 proliferation, SR; type: cell-based, Human; conditions: Homo sapiens, SR cells, read-out: Inhibitory activity (IC50, nM) on tumor cell proliferation, SR
# Experimental: (§1) The tumor cells used herein were cultured in a cell culture medium listed in table A1 at 37°C in an incubator with 5% CO2. Prior to experimentation, all cell lines used were correctly identified by STR profiling, and tested negative for mycoplasma contamination using a mycoplasma detection kit through routine screenings. Table A1. Tumor cells and cell culture medium used in the present disclosure
# (§2) IC50 values of the compounds of the present disclosure (including the compounds in Table 1, and compounds of examples) were measured using the Meilun Cell Counting Kit-8 kit from Dalian Meilun Biotech Co., Ltd. Assay details are as follows: tumor cells were seeded in a 96-well plate at a density listed in Table A2. After 24h, 100 µL of the inoculated cells were treated with 0.5µL of the compounds of the present disclosure (including the compounds in Tables 1 and 2, and compounds of examples) at 10 different successively decreasing concentrations (starting at the highest concentration of 10µM; 5-fold serial dilutions). After the cells were treated with the compounds of the present disclosure for a period of time, the cell viability detection reagent was added to the culture medium for cell viability assessment according to the instructions provided with the CCK-8 kit. […] The growth inhibition of the compounds of the present disclosure on cells was plotted by Prism Graphpad software, and the IC50 values of the compounds of the present disclosure were calculated therefrom. […] Seeding protocol and treatment time for tumor cells
# MM.1S = experiment: CCK-8 proliferation, MM.1S; type: cell-based; conditions: Homo sapiens, MM1.S, MM.1S cells, read-out: Inhibitory activity (IC50, nM) on tumor cell proliferation, MM.1S
# Experimental: as §1, §2
# H2228 = experiment: CCK-8 proliferation, NCI-H2228 (H2228); type: cell-based; conditions: Homo sapiens, NCI-H2228; Table B6, compounds designed based on the ALK inhibitors; H2228 cells; read-out: Inhibitory activity (IC50, nM) on tumor cell proliferation, H2228
# Experimental: as §1, §2
# H1975 = experiment: CCK-8 proliferation, NCI-H1975 (H1975); type: cell-based, Human; conditions: Homo sapiens, NCI-H1975; Table B6, compounds designed based on the ALK inhibitors; H1975 cells; read-out: Inhibitory activity (IC50, nM) on tumor cell proliferation, H1975
# Method in brief: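 CCK-8 viability readout; IC50 from growth-inhibition curve fitting. Cells plated, dosed 24h later with a 10-point series, top 10µM, 5-fold steps. Culture at 37°C, 5% CO2.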
# MCF7 = experiment: CCK-8 proliferation, MCF7 (MCF-7); type: cell-based; conditions: Homo sapiens, MCF7; Table B6, compounds designed based on the ALK inhibitors; MCF-7 cells; read-out: Inhibitory activity (IC50, nM) on tumor cell proliferation, MCF-7
# Experimental: as §1, §2
# [1] = Table B6, compounds designed based on the ALK inhibitors
# [2] = Table B10, compounds designed based on the IRAK4 inhibitors
SMILES,IC50 (SR; [1]) [nM],IC50 (MM.1S; [1]) [nM],IC50 (H2228) [nM],IC50 (H1975) [nM],IC50 (MCF7) [nM],IC50 (MM.1S; [2]) [nM],IC50 (SR; [2]) [nM]
"CCc1cc2c(cc1N1CCC(N3CCN(Cc4ccc(N5CCC(=O)NC5=O)cn4)CC3)CC1)C(C)(C)c1[nH]c3cc(C#N)ccc3c1C2=O [GT-07311, 8-(4-(4-((5-(2,4-dioxotetrahydropyrimidin-1(2H)-yl)pyridin-2-yl)methyl)piperazin-1-yl)piperidin-1-yl)-9-ethyl-6,6-dimethyl-11-oxo-6,11-dihydro-5H-benzo[b]carbazole-3-carbonitrile]",1 to 10,500 to 1000,50 to 100,500 to 1000,500 to 1000,–,–
"COc1cc(N2CCC(N3CCN(Cc4ccc(N5CCC(=O)NC5=O)cc4)CC3)CC2)ccc1Nc1ncc(Cl)c(Nc2ccccc2P(C)(C)=O)n1 [GT-07603, 1-(4-((4-(1-(4-((5-chloro-4-((2-(dimethylphosphoryl)phenyl)amino)pyrimidin-2-yl)amino)-3-methoxyphenyl)piperidin-4-yl)piperazin-1-yl)methyl)phenyl)dihydropyr imidine-2,4(1H,3H)-dione]",10 to 50,500 to 1000,10 to 50,100 to 500,100 to 500,–,–
"COc1cc(N2CCN(Cc3ccnc(N4CCC(=O)NC4=O)c3)CC2)ccc1Nc1ncc(Cl)c(Nc2ccccc2P(C)(C)=O)n1 [GT-07708, 1-(4-((4-(4-((5-chloro-4-((2-(dimethylphosphoryl)phenyl)amino)pyrimidin-2-yl)amino)-3-methoxyphenyl)piperazin-1-yl)methyl)pyridin-2-yl)dihydropyrimidine-2,4(1H,3H)-dione]",10 to 50,–,100 to 500,100 to 500,500 to 1000,–,–
"COc1cc(N2CCN(Cc3cc(C4CCC(=O)NC4=O)cnc3F)CC2)ccc1Nc1ncc(Cl)c(Nc2ccccc2P(C)(C)=O)n1 (stereo not drawn) [GT-07710, 3-(5-((4-(4-((5-chloro-4-((2-(dimethylphosphoryl)phenyl)amino)pyrimidin-2-yl)amino)-3-methoxyphenyl)piperazin-1-yl)methyl)-6-fluoropyridin-3-yl)piperidine-2,6-dione]",10 to 50,–,500 to 1000,500 to 1000,100 to 500,–,–
"Cc1cc(Nc2ncc(Cl)c(Nc3ccccc3S(=O)(=O)C(C)C)n2)c(OC(C)C)cc1C1CCN(Cc2cncc(N3CCC(=O)NC3=O)c2)CC1 [GT-07597, 1-(5-((4-(4-((5-chloro-4-((2-(isopropylsulfonyl)phenyl)amino)pyrimidin-2-yl)amino)-5-isopropoxy-2-methylphenyl)piperidin-1-yl)methyl)pyridin-3-yl)dihydropyrimidine-2,4(1H,3H)-dione]",10 to 50,500 to 1000,50 to 100,–,500 to 1000,–,–
"Cc1cc(Nc2ncc(Cl)c(Nc3ccccc3S(=O)(=O)C(C)C)n2)c(OC(C)C)cc1C1CCN(Cc2ccnc(C3CCC(=O)NC3=O)c2)CC1 (stereo not drawn) [GT-07599, 3-(4-((4-(4-((5-chloro-4-((2-(isopropylsulfonyl)phenyl)amino)pyrimidin-2-yl)amino)-5-isopropoxy-2-methylphenyl)piperidin-1-yl)methyl)pyridin-2-yl)piperidine-2,6-dione]",10 to 50,500 to 1000,100 to 500,–,100 to 500,–,–
"Cc1cc(Nc2ncc(Cl)c(Nc3ccccc3S(=O)(=O)C(C)C)n2)c(OC(C)C)cc1C1CCN(Cc2cncc(C3CCC(=O)NC3=O)c2)CC1 (stereo not drawn) [GT-07601, 3-(5-((4-(4-((5-chloro-4-((2-(isopropylsulfonyl)phenyl)amino)pyrimidin-2-yl)amino)-5-isopropoxy-2-methylphenyl)piperidin-1-yl)methyl)pyridin-3-yl)piperidine-2,6-dione]",10 to 50,500 to 1000,10 to 50,–,100 to 500,–,–
"O=C1CCN(c2ccc(CN3CCC(n4cc(NC(=O)c5cnn6ccc(N7C[C@H]8C[C@@H]7CO8)nc56)c(C(F)F)n4)CC3)nc2)C(=O)N1 [GT-05053, 5-((1R,4R)-2-oxa-5-azabicyclo[2.2.1]heptan-5-yl)-N-(3-(difluoromethyl)-1-(1-((5-(2,4-dioxotetrahydropyrimidin-1(2H)-yl)pyridin-2-yl)methyl)piperidin-4-yl)-1H-pyrazol-4-yl)pyrazolo[1,5-a]pyrimidine-3-carboxamide]",–,–,–,–,–,500 to 1000,–
"COc1cc(N2CCC(N(C)Cc3cc(N4CCC(=O)NC4=O)ncc3F)CC2)ccc1Nc1ncc(Cl)c(Nc2ccccc2P(C)(C)=O)n1 [GT-07693, 1-(4-(((1-(4-((5-chloro-4-((2-(dimethylphosphoryl)phenyl)amino)pyrimidin-2-yl)amino)-3-methoxyphenyl)piperidin-4-yl)(methyl)amino)methyl)-5-fluoropyridin-2-yl)dihydropyrimidine-2,4(1H,3H)-dione]",10 to 50,–,100 to 500,100 to 500,100 to 500,–,–
"O=C1CCC(c2ccc(CN3CCN(Cc4ccc5c(c4)nc(NC(=O)c4cccc(C(F)(F)F)c4)n5[C@H]4CC[C@@H](CO)CC4)CC3)cc2)C(=O)N1 (stereo partly drawn) [GT-04978, N-(5-((4-(4-(2,6-dioxopiperidin-3-yl)benzyl)piperazin-1-yl)methyl)-1-((1s,4s)-4-(hydroxymethyl)cyclohexyl) -1H-benzo[d]imidazol-2-yl)-3-(trifluoromethyl)benzamide]",–,–,–,–,–,500 to 1000,100 to 500
"CCc1cc2c(cc1N1CCC(N3CCN(Cc4ccc(C5CCC(=O)NC5=O)cn4)CC3)CC1)C(C)(C)c1[nH]c3cc(C#N)ccc3c1C2=O (stereo not drawn) [GT-07705, 8-(4-(4-((5-(2,6-dioxopiperidin-3-yl)pyridin-2-yl)methyl)piperazin-1-yl)piperidin-1-yl)-9-ethyl-6,6-dimethyl-11-oxo-6,11-dihydro-5H-benzo[b]carbazole-3-carbonitrile]",1 to 10,–,50 to 100,500 to 1000,100 to 500,–,–
"CCc1cc2c(cc1N1CCC(N3CCN(Cc4ccnc(N5CCC(=O)NC5=O)c4)CC3)CC1)C(C)(C)c1[nH]c3cc(C#N)ccc3c1C2=O [GT-07701, 8-(4-(4-((2-(2,4-dioxotetrahydropyrimidin-1(2H)-yl)pyridin-4-yl)methyl)piperazin-1-yl)piperidin-1-yl)-9-ethyl-6,6-dimethyl-11-oxo-6,11-dihydro-5H-benzo[b]carbazole-3-carbonitrile]",1 to 10,–,50 to 100,–,500 to 1000,–,–
"CCc1cc2c(cc1N1CCC(N3CCN(Cc4cc(N5CCC(=O)NC5=O)ncc4F)CC3)CC1)C(C)(C)c1[nH]c3cc(C#N)ccc3c1C2=O [GT-07700, 8-(4-(4-((2-(2,4-dioxotetrahydropyrimidin-1(2H)-yl)-5-fluoropyridin-4-yl)methyl)piperazin-1-yl)piperidin-1-yl)-9-ethyl-6,6-dimethyl-11-oxo-6,11-dihydro-5H-benzo[b]carbazole-3-carbonitrile]",1 to 10,–,50 to 100,–,500 to 1000,–,–
"COc1cc(N2CCN(Cc3cc(N4CCC(=O)NC4=O)ncc3F)CC2)ccc1Nc1ncc(Cl)c(Nc2ccccc2P(C)(C)=O)n1 [GT-07707, 1-(4-((4-(4-((5-chloro-4-((2-(dimethylphosphoryl)phenyl)amino)pyrimidin-2-yl)amino)-3-methoxyphenyl)piperazin-1-yl)methyl)-5-fluoropyridin-2-yl)dihydropyrimidine-2,4(1H,3H)-dione]",10 to 50,–,100 to 500,500 to 1000,500 to 1000,–,–
